Experimental data published in US8318781B2, “G-protein-conjugated receptor agonist” (Japan Science and Technology Agency, priority 2007, dated 2012).
Like-named read-outs stand apart in the source and are kept apart here.

Key:
[1] = system: GLP-1 (Glucagon-Like Peptide) release; experiment: GLP-1 (glucagon-like peptide) release test in mice; format: in vivo; details: C57BL/6J mice; for Average GLP-1 concentration: given into the colon by catheter, portal vein blood after 15 minutes, ELISA, NCG21 suspension in PEG at 100 mmol/g body weight; for increase of GLP-1 concentration in the portal blood relative to control DMSO: portal blood 15 minutes after colonic administration
Protocol: C57BL/6J mice (8 weeks old) were anesthetized with Nembutal (pentobarbital sodium) (60 mg/kg body weight), a catheter was inserted into the colon through the celiotomy, and the solution of the test compound was administered through the catheter (NCG21 as a suspension in PEG at 100 mmol/g body weight, at a rate of 100 μl/min). After 15 minutes, a blood sample was taken from the portal vein, centrifuged at 8000 rpm for 10 minutes, and the supernatant was stored at −80° C. GLP-1 (ng/mL) was determined using ELISA kit (Wako Pure Chemical Industries, Ltd.) within the next day. Each group consists of 12 mice, except that 11 mice were used for NCG21.

human GPR120 (hGPR120) [2] = molecular target: T1, human GPR120 (hGPR120) (Homo sapiens, UniProt Q5NUL3); experiment: Determination of intracellular Ca2+ concentration (FLIPR), cell line GPR120/Flp-in; format: cell-based
T1 construct: expressed in transfected cells; doxycycline-inducible expression vector
T1 sequence (Q5NUL3 1-361): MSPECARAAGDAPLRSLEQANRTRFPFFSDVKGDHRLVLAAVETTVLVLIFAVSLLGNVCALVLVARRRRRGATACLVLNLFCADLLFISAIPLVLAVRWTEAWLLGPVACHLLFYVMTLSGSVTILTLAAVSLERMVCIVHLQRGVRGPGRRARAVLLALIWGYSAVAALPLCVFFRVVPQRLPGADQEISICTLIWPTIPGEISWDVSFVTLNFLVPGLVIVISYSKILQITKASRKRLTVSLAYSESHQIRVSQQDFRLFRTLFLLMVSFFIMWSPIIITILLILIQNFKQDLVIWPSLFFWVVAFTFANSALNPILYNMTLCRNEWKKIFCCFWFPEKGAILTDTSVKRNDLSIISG

human GPR40 (hGPR40) = molecular target: T2, human GPR40 (hGPR40) (Homo sapiens, UniProt O14842); experiment: Determination of intracellular Ca2+ concentration (FLIPR), cell line TXGPR40; format: cell-based
T2 construct: expressed in transfected cells; doxycycline-inducible expression vector

human GPR120 (hGPR120) [3] = molecular target: T1, human GPR120 (hGPR120); experiment: Determination of intracellular Ca2+ concentration (FLIPR), cell line TXGPR120; format: cell-based; details: TXGPR120 cells, maximum fluorescence intensity vs ligand concentration; read-out: [Ca^2+]/GPR120 pEC50 (converted)

T2 sequence (O14842 whole entry): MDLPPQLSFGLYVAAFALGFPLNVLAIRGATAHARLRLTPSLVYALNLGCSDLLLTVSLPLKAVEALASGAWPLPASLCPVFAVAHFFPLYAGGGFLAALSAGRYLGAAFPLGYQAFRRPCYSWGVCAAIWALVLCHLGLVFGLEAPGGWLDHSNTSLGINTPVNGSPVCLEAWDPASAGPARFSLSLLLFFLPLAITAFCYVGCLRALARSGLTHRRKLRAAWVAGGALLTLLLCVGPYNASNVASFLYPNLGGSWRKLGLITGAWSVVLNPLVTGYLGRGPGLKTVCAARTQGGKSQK

Row | EC50 (human GPR120 (hGPR120) [2]; GPR120/Flp-in cells, maximum fluorescence intensity vs ligand concentration, read-out: [Ca^2+]/GPR120/Flp-In pEC50 (converted)) [µM] | EC50 (human GPR40 (hGPR40); TXGPR40 cells, maximum fluorescence intensity vs ligand concentration, read-out: [Ca^2+]/GPR40 pEC50 (converted)) [µM] | melting point [°C] | EC50 (human GPR120 (hGPR120) [3]) [µM] | EC50 (human GPR120 (hGPR120) [2]) [µM] | EC50 (human GPR40 (hGPR40)) [µM] | Structure (SMILES) | Average GLP-1 concentration [1] [ng/mL] | increase of GLP-1 concentration in the portal blood relative to control DMSO [1] [times]
1 |  |  |  |  |  |  | CC/C=C\C/C=C\C/C=C\CCCCCCCC(=O)O [LA, cis-α-linolenic acid, reference compound] | 3.87 | 2.4
2 | 1.26 | 18.6 | 98 to 99 | 2.88 |  |  | O=C(O)CCCc1ccc(OCCN(c2ccccc2)c2ccccn2)cc1 [NCG21] | 4.02 | 2.5
3 |  |  | 74 to 75 |  | 9.12 | 7.76 | O=C(O)CCCCc1ccc(OCCN(c2ccccc2)c2ccccn2)cc1 [NCG23, 5-{4-[2-(2-phenylpyridinylamino)ethoxy]phenyl}pentanoic acid] |  | 
